Assay results published in ChEMBL document CHEMBL5131484, “Design and synthesis of adamantane-1-carbonyl thiourea derivatives as potent and selective inhibitors of h-P2X4 and h-P2X7 receptors: An Emerging therapeutic tool for treatment of inflammation and neurological disorders” (Eur J Med Chem, 2022).

What was measured:
[1] = target: T1, P2X purinoceptor 4 (Homo sapiens) (UniProt Q99571); assay: Negative allosteric modulation activity at human P2X4 receptor expressed in human 1321N1 cells assessed as ATP induced calcium response by measuring maximal ATP efficacy at 40 nM relative to control; assay type: cell-based; details: filed as negative allosteric modulator
T1 sequence (whole entry): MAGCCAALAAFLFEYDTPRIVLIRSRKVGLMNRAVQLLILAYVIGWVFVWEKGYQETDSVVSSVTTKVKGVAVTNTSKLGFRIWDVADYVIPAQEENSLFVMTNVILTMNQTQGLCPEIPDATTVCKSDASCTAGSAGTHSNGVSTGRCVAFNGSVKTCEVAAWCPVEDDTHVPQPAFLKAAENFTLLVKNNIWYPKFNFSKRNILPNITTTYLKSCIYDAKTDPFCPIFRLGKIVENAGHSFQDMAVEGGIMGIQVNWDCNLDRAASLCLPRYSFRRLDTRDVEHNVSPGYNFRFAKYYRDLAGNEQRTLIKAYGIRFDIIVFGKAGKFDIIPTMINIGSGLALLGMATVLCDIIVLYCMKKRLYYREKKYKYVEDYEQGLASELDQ

[2] = target: T1, P2X purinoceptor 4 (Homo sapiens); assay: Negative allosteric modulation activity at human P2X4 receptor expressed in human 1321N1 cells assessed as ATP induced calcium response by measuring maximal ATP efficacy at 100 nM relative to control; assay type: cell-based; details: filed as negative allosteric modulator
[3] = Cytotoxicity against human HEK293 cells assessed as reduction in cell viability at 50 uM incubated for 24 hrs by MTT assay relative to control; assay type: toxicity, cell-based; details: read-out: INH
[4] = target: T2, P2X purinoceptor 7 (Homo sapiens, UniProt Q99572); assay: Negative allosteric modulation activity at human P2X7 receptor expressed in human 1321N1 cells assessed as reduction in intracellular Ca2+ influx incubated for 30 mins by Fura-2 AM based fluorescence assay; assay type: cell-based
T2 sequence (Q99572 whole entry): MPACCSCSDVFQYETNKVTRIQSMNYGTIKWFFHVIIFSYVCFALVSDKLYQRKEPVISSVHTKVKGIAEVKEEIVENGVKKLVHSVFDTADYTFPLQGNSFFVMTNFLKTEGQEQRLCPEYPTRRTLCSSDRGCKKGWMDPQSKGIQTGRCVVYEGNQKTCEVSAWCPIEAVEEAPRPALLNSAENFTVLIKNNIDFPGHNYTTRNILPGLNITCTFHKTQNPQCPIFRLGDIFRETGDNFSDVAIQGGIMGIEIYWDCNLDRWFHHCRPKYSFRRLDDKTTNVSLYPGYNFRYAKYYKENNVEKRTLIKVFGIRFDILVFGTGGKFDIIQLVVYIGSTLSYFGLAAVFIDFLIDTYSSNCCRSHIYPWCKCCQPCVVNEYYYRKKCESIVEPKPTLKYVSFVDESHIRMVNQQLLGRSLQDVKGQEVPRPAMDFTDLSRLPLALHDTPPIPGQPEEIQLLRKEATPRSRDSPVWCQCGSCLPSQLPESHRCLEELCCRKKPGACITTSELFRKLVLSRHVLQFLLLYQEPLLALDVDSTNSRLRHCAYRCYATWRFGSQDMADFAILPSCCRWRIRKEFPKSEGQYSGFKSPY

[5] = target: P2X purinoceptor 5 (Homo sapiens, UniProt Q93086); assay: Negative allosteric modulation activity at human P2X5 receptor expressed in human 1321N1 cells assessed as reduction in intracellular Ca2+ influx incubated for 30 mins by Fura-2 AM based fluorescence assay relative to control; assay type: cell-based
[6] = target: T3, P2X purinoceptor 2 (Homo sapiens) (UniProt Q9UBL9); assay: Negative allosteric modulation activity at human P2X2 receptor expressed in human 1321N1 cells assessed as reduction in intracellular Ca2+ influx incubated for 30 mins by Fura-2 AM based fluorescence assay relative to control; assay type: cell-based
T3 sequence (whole entry): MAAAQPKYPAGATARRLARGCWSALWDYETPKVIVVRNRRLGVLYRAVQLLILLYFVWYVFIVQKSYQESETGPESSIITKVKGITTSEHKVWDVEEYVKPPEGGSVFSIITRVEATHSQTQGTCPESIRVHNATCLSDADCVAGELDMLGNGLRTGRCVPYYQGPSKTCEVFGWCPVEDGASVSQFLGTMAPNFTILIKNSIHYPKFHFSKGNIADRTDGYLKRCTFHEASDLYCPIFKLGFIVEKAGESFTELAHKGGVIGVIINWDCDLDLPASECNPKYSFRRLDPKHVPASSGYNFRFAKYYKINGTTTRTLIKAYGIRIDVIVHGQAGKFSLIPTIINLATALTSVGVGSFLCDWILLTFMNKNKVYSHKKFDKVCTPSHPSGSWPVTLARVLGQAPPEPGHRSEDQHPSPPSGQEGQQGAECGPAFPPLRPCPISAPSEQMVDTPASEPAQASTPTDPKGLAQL

[7] = target: T1, P2X purinoceptor 4 (Homo sapiens); assay: Negative allosteric modulation activity at human P2X4 receptor expressed in human 1321N1 cells assessed as ATP induced calcium response by measuring maximal ATP efficacy at 200 nM relative to control; assay type: cell-based
[8] = tested on: HeLa; assay: Cytotoxicity against human HeLa cells assessed as reduction in cell viability at 50 uM incubated for 24 hrs by MTT assay relative to control; assay type: functional
[9] = Cytotoxicity against human 1321N1 cells assessed as reduction in cell viability at 50 uM incubated for 24 hrs by MTT assay relative to control; assay type: functional

Sequence of P2X purinoceptor 5 (Q93086 whole entry): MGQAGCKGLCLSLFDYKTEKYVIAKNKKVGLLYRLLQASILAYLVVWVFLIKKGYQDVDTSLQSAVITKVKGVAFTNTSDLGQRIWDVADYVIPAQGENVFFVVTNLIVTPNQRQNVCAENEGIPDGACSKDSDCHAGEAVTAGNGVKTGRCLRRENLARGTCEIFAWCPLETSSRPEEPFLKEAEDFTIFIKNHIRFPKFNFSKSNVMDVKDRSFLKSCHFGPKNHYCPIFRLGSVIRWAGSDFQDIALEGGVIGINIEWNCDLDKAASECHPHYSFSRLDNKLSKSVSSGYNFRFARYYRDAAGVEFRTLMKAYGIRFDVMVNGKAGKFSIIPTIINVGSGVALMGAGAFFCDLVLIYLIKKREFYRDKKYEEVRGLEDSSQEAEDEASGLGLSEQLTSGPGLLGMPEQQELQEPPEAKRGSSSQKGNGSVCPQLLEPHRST

Emax [1]: 68%
Emax [2]: 45%
IC50 [4]: 25.2 µM
inhibition [5]: 12%
inhibition [6]: 30%
Emax [7]: 32%
SMILES: CC(C)c1ccc(NC(=S)NC(=O)C23CC4CC(CC(C4)C2)C3)c(Br)c1
cytotoxicity at 24 h, 50 µM [3]: 4.28%
inhibition at 50 µM [8]: 6.54%
inhibition at 50 µM [9]: 9.26%
